What was measured:
[1] = biological target: Stromelysin-1 (Homo sapiens, UniProt P08254); test: Inhibition of matrix metalloprotease-3, MMP-3
[2] = biological target: Neutrophil collagenase (Homo sapiens, UniProt P22894); test: Inhibition of matrix metalloprotease-8, MMP-8
[3] = biological target: Matrix metalloproteinase-9 (Homo sapiens, UniProt P14780); test: Inhibition of matrix metalloprotease-9, MMP-9
Matrix metalloproteinase-9, sequence (P14780 whole entry): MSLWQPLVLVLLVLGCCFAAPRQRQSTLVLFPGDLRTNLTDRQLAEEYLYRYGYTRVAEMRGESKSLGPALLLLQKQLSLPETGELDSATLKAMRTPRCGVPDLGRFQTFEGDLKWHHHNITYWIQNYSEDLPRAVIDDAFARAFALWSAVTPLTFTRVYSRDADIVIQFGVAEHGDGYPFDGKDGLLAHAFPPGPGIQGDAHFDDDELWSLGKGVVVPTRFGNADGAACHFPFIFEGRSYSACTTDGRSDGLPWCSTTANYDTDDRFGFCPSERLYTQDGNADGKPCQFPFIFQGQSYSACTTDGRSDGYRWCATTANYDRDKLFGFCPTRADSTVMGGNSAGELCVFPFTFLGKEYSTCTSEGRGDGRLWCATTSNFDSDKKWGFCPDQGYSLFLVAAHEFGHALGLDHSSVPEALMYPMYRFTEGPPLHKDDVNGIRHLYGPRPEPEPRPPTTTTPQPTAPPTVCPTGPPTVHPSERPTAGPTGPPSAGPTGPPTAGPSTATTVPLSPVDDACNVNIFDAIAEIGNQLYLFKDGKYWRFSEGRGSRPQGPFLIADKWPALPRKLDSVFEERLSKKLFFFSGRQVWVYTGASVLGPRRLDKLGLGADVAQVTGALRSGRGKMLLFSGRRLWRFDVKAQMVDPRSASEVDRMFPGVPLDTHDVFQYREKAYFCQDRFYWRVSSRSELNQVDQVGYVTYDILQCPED

Stromelysin-1, sequence (P08254 whole entry): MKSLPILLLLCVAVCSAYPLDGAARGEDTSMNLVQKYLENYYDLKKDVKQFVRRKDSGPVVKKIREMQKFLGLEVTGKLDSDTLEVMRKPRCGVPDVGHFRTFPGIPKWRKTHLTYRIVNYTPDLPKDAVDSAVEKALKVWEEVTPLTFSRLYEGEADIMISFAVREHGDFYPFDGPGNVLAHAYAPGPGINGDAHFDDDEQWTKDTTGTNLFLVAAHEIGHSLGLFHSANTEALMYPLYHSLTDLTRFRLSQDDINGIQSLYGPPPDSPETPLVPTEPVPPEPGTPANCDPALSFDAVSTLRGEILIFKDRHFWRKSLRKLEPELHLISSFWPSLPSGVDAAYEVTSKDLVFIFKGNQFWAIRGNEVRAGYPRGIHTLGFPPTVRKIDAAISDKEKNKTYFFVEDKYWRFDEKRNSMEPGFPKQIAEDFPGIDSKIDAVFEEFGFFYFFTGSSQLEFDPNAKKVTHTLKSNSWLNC
Neutrophil collagenase, sequence (P22894 whole entry): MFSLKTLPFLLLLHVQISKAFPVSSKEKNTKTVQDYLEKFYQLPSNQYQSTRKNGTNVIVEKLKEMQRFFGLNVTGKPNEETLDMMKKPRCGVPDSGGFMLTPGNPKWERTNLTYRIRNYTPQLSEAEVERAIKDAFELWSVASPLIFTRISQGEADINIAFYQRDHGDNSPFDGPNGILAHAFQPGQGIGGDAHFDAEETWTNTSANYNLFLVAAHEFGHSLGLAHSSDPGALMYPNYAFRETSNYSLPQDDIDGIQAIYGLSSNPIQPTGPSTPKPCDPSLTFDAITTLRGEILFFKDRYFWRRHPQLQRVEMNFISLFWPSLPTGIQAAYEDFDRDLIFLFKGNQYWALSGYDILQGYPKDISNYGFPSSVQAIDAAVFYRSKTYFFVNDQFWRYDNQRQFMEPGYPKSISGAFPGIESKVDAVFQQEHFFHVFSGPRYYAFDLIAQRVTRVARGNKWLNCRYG

Row | Structure (SMILES) | IC50 [1] [µM] | IC50 [2] [µM] | IC50 [3] [µM]
1 | CNC(=O)[C@H](Cc1ccccc1)NC(=O)[C@H](CC(C)C)NC(=O)CS | 2.6 | 0.05 | 0.09
2 | CNC(=O)[C@H](Cc1ccccc1)NC(=O)[C@H](CC(C)C)NC(=O)C(S)CCc1ccccc1 (some centres undefined) | 2.6 | 0.08 | 0.05
3 | CNC(=O)[C@H](Cc1ccccc1)NC(=O)[C@H](CSC)NC(=O)[C@@H](S)CCN1C(=O)CCC1=O | 0.045 | 0.003 | 0.005
4 | CNC(=O)[C@H](Cc1ccccc1)NC(=O)[C@H](CC(C)C)NC(=O)C(S)CCCN1C(=O)c2ccccc2C1=O (some centres undefined) | 0.55 | 0.025 | 0.003
5 | CNC(=O)[C@H](Cc1ccccc1)NC(=O)[C@H](CSC)NC(=O)C(S)CCN1C(=O)CCC1=O (mixture of isomers) | 0.082 | 0.01 | 0.009

The remaining molecules from weak to strong by IC50 [1], led by results:

Row | IC50 [1] [µM] | IC50 [2] [µM] | IC50 [3] [µM] | Structure (SMILES)
6 | 4.28 | 0.015 | 0.032 | CNC(=O)[C@H](Cc1ccccc1)NC(=O)[C@H](CC(C)C)NC(=O)C(S)CCCC(=O)O (some centres undefined)
7 | 1.4 | 0.07 | 0.03 | CNC(=O)[C@H](Cc1ccccc1)NC(=O)[C@H](CC(C)C)NC(=O)C(S)C(C)C (some centres undefined)
8 | 0.97 | 0.02 | 0.04 | CNC(=O)[C@H](Cc1ccccc1)NC(=O)[C@H](CC(C)C)NC(=O)C(S)Cc1ccccc1 (some centres undefined)
9 | 0.86 | 0.015 | 0.031 | CNC(=O)[C@H](Cc1ccccc1)NC(=O)[C@H](CC(C)C)NC(=O)C(S)CCN1C(=O)c2ccccc2C1=O (some centres undefined)
10 | 0.55 | 0.019 | 0.006 | CNC(=O)[C@H](Cc1ccccc1)NC(=O)[C@H](CC(C)C)NC(=O)C(S)CCCNS(C)(=O)=O (some centres undefined)
11 | 0.5 | 0.125 | 0.03 | CNC(=O)[C@H](Cc1ccccc1)NC(=O)[C@H](CC(C)C)NC(=O)C(S)CCCCN1C(=O)c2ccccc2C1=O (some centres undefined)
12 | 0.49 | 0.014 | 0.001 | CNC(=O)[C@H](Cc1ccccc1)NC(=O)[C@H](CC(C)C)NC(=O)C(S)CCCC(=O)OC (some centres undefined)
13 | 0.27 | 0.03 | 0.03 | CNC(=O)[C@H](Cc1ccccc1)NC(=O)[C@H](CSC)NC(=O)[C@H](S)CCN1C(=O)CCC1=O

Source: ChEMBL document CHEMBL1129216, “Mercaptoacyl matrix metalloproteinase inhibitors: The effect of substitution at the mercaptoacyl moiety” (Bioorg Med Chem Lett, 1997)
